Numbers after ± are expanded uncertainties.
Key:
[1] = Crystal; DTA
[2] = Molar enthalpy of transition or fusion; settings: Crystal; DSC
[3] = molar heat capacity at constant pressure; settings: 101.33 kPa, Crystal, Small sample (50 mg) DSC

O.O.O.O.O.O.[Cl-].[Cl-].[Mg+2] [magnesium chloride hexahydrate]
Settings	Molar enthalpy of transition or fusion [kcal/mol]	Normal melting temperature [°C]
[1]	–	117.5 ± 0.4
[2]	8.21 ± 0.179	–

[3]
Settings	molar heat capacity at constant pressure [J/K/mol]
298.15 K	336.4 ± 10
299.15 K	336.1 ± 10
300.15 K	336.2 ± 10
301.15 K	336.7 ± 10
302.15 K	337.2 ± 10
303.15 K	337.8 ± 10
304.15 K	338.3 ± 10
305.15 K	338.8 ± 10
306.15 K	339.3 ± 10
307.15 K	339.8 ± 10
308.15 K	340.3 ± 10
309.15 K	340.9 ± 10
310.15 K	341.4 ± 10
311.15 K	342 ± 10
312.15 K	342.5 ± 11
313.15 K	343 ± 11
314.15 K	343.5 ± 11
315.15 K	344.1 ± 11
316.15 K	344.6 ± 11
317.15 K	345.2 ± 11
318.15 K	345.7 ± 11
319.15 K	346.3 ± 12
320.15 K	346.9 ± 12
321.15 K	347.4 ± 12
322.15 K	348 ± 12
323.15 K	348.5 ± 12
324.15 K	349.1 ± 13
325.15 K	349.6 ± 13
326.15 K	350.1 ± 13
327.15 K	350.7 ± 13
328.15 K	351.3 ± 14
329.15 K	351.8 ± 14
330.15 K	352.4 ± 14
331.15 K	353 ± 15
332.15 K	353.6 ± 15
333.15 K	354.2 ± 15
334.15 K	354.8 ± 16
335.15 K	355.4 ± 16
336.15 K	355.9 ± 16
337.15 K	356.5 ± 17
338.15 K	357.1 ± 17
339.15 K	357.8 ± 17
340.15 K	358.4 ± 17
341.15 K	359.1 ± 18
342.15 K	359.7 ± 18
343.15 K	360.3 ± 18
344.15 K	360.9 ± 19
345.15 K	361.5 ± 19
346.15 K	362.2 ± 19
347.15 K	362.9 ± 20
348.15 K	363.6 ± 20
349.15 K	364.3 ± 21
350.15 K	365 ± 21
351.15 K	365.6 ± 21
352.15 K	366.3 ± 22
353.15 K	367 ± 22
354.15 K	367.8 ± 23
355.15 K	368.6 ± 23
356.15 K	369.3 ± 24
357.15 K	370.1 ± 24
358.15 K	370.8 ± 25
359.15 K	371.7 ± 25
360.15 K	372.4 ± 25
361.15 K	373.3 ± 26
362.15 K	374.2 ± 27
363.15 K	375.1 ± 27
364.15 K	376 ± 27
365.15 K	377 ± 28
366.15 K	377.9 ± 28
367.15 K	379 ± 29
368.15 K	380 ± 30
369.15 K	381.1 ± 30
370.15 K	382.1 ± 31
371.15 K	383.3 ± 32
372.15 K	384.4 ± 32
373.15 K	385.6 ± 33
374.15 K	386.8 ± 34
375.15 K	388.1 ± 35
376.15 K	389.3 ± 36
377.15 K	390.6 ± 37
378.15 K	392 ± 38
379.15 K	393.4 ± 39
380.15 K	394.9 ± 40
381.15 K	396.4 ± 41
382.15 K	397.8 ± 42
383.15 K	399.4 ± 44
384.15 K	401.3 ± 46
385.15 K	403.3 ± 48
386.15 K	405.5 ± 50
387.15 K	409.7 ± 54
388.15 K	418.7 ± 59
389.15 K	451.6 ± 77
